# Measurements reported in patent US20260285816A1, “Piperazinyl-Modified Quinazolinyl-Aryl Urea Derivative, And Preparation Method And Use Thereof” (Guangxi Normal University, priority 2025, published 2026).
# Columns and labels:
# T24 cells = assay: Cell cycle analysis (PI staining, flow cytometry), T24; type: cell-based, human
# Protocol: (§1) Tumor cells (T24, UM-UC-3, 143B, BxPC-3) in logarithmic growth phase were inoculated into 70 mm culture dishes. After 70% confluency was reached, medium was replaced and treated with: compound 8-1j, ferroptosis inducer Erastin, or cell cycle blocker paclitaxel (PTX) for a specified duration. Post-incubation, cells were trypsinized, collected, centrifuged, and washed 2 times with pre-cooled phosphate-buffered saline (PBS). Pre-cooled 75% ethanol was added dropwise during vortexing for fixation at −20° C. overnight. After centrifugation (10 min), supernatant was discarded. Cells were rewashed with PBS and centrifuged. Following kit instructions (Beyotime, C1052, China), 0.5 mL staining buffer, 25 μL PI (propidium iodide) stain (20×), and 10 μL RNase A (50×) were mixed per sample. Cells were resuspended in PI staining solution and incubated at 37° C. in dark for 30 min (gentle shaking every 10 min). Samples were filtered through 200-mesh filters, transferred into a flow tube, and analyzed via BD FACSVerse flow cytometer. All experiments were conducted in 3 repeats. Compounds 8-2h and 8-2j were evaluated identically.
# human osteosarcoma 143B = assay: 143B tumor-bearing nude mouse model; type: in vivo, nude mice; conditions: 40 mg/kg oral gavage, every 2 d, 42 d
# Protocol: (§2) Experimental method: bladder cancer J82 cells in logarithmic growth phase were trypsinized, collected, and then centrifuged, and resuspended in serum-free DMEM medium after discarding an original medium. Cell density was adjusted, and 0.2 mL cell suspension was subcutaneously inoculated into 5-week-old BALB/c-nu mice (sex-balanced, 18-20 g) under a laminar flow clean bench. Post-inoculation, bleeding at injection sites was monitored. When tumors reached 50-80 mm^3, nude mice with good tumor growth status were randomized into 5 groups (n=6/group) for intraperitoneal administration. Tumor volume and body weight were recorded on Day 0. […] Dosing occurred every 2 d for 42 d. After administering the drug, mice were monitored for diarrhea, anorexia, lethargy, and allergic reactions (e.g., pruritus). The body weight of nude mice was measured every 2 days, and the long and short diameters of the tumors in nude mice were measured by using a vernier caliper, then the recording was finished.
# Construction of the human osteosarcoma 143B tumor-bearing nude mouse model followed similar procedures, with identical dosing frequency but administration route changed to oral gavage. Specifically: When tumors reached 60-90 mm^3, mice were randomized into 4 groups (n=6). […]
# 143B cells = assay: Cell cycle analysis (PI staining, flow cytometry), 143B; type: cell-based, human
# Protocol: as §1
# bladder cancer J82 cells = assay: J82 tumor-bearing nude mouse model; type: in vivo, BALB/c-nu mice
# Protocol: as §2
# 0.9% normal saline was added thereto to obtain a solution, which was sterilized under UV light for 30 min. Administration volume was 10 mL/kg per mouse. The preparation contained PEG400 and 0.9% normal saline at a 3:1 volume ratio, with 2% (v/v) DMA.
# [1] = tested on: FoxM1, KIF20A, Nrf2, xCT, GPx4, FTH1, HO-1, IRP2, CD71 in bladder cancer T24 cells; assay: Western blot of cell cycle- and ferroptosis-related proteins; type: cell-based, human
# Protocol: Experimental method: bladder cancer T24 cells in logarithmic growth phase were inoculated into 100 mm culture dishes. After 70% confluency was reached, medium was replaced and treated with compound 8-1j or ferroptosis inhibitor Fer-1. Post-co-incubation, cells were trypsinized, collected, and washed with pre-cooled PBS. 0.2 mL of RIPA cell lysis buffer was added to each tube, mixed thoroughly, and transferred to a 1.5 mL centrifuge tube, and lysed on ice with agitation for 30 min. Lysates were centrifuged at 12,000 rpm (4° C., 10 min) to collect supernatants. Supernatants were mixed with 5×SDS-PAGE protein loading buffer, heated at 95° C. for 7 min, and stored at −80° C. SDS-PAGE (sodium dodecyl sulfate-polyacrylamide gel electrophoresis) was conducted at 80 V until entry into separating gel, then at 120 V until bromophenol blue reached the gel bottom. Gels were cut according to molecular weight indicated by Marker, transferred to membranes, blocked, and then immune reaction was performed. Protein bands were visualized by an enhanced chemiluminescence (ECL) detection system. Band densities were analyzed using ImageJ software. Three repeated experiments were conducted.
# [2] = tested on: human pancreatic cancer BxPC-3; assay: BxPC-3 tumor-bearing nude mouse model; type: in vivo, nude mice; parameters: Tumor growth control, high dose: dose or concentration left out as unconfirmed
# BxPC-3 cells = assay: Cell cycle analysis (PI staining, flow cytometry), BxPC-3; type: cell-based, human
# Protocol: as §1
# [3] = 20 mg/kg intraperitoneal, every 2 d for 42 d
smiles,measurement,setting,value
"COc1cc2ncnc(NCc3cccc(NC(=O)Nc4ccc(C(C)(C)C)cc4)c3)c2cc1OCCCCCCN1CCN(CCN2CCOCC2)CC1 [Compound 8-1j, N-(3-(((7-methoxy-6-((6-(4-(2-morpholinoethyl)piperazin-1-yl)hexyl)oxy)quinazolin-4-yl)amino)methyl)phenyl)-N′-(4-tert-butylphenyl)urea]",Effect of co-administration with PTX on cell cycle,"T24 cells; T24, with PTX",Synergistic effects
same,Cell cycle arrest phase,T24 cells; T24 cells (FIG. 44),arrest cell cycle at G2/M phase
same,Tumor inhibition,human osteosarcoma 143B,significantly stronger tumor inhibition than positive control Apat
same,Cell cycle arrest phase,143B cells; 143B cells (FIG. 46),arrest cell cycle at G2/M phase
same,Effect of co-administration with PTX on cell cycle,"143B cells; 143B, with PTX",Synergistic effects
same,Body weight and tolerability observations,bladder cancer J82 cells; [3],"Mild weight loss occurs without anorexia, diarrhea, or pruritus"
same,Tumor growth rates vs. vehicle control and equi-dose positive control,bladder cancer J82 cells; [3],significantly lower
same,Anti-tumor efficacy compared with 9g (A-2),bladder cancer J82 cells; at 20 mg/kg intraperitoneal,surpassed that of 9g (A-2)
same,"Ferroptosis-related proteins HO-1, IRP2, and CD71 expression",[1],upregulating
same,"FoxM1, KIF20A, Nrf2, xCT, GPx4, and FTH1 expression",[1]; concentration-dependently,significantly downregulates
"CCc1cccc(CC)c1NC(=O)Nc1cccc(CNc2ncnc3cc(OC)c(OCCCCCCN4CCC(CN5CCN(c6ccccn6)CC5)CC4)cc23)c1 [Compound 8-2h, N-(3-(((7-methoxy-6-((6-(4-((4-(pyridin-2-yl)piperazin-1-yl)methyl)piperidin-1-yl)hexyl)oxy)quinazolin-4-yl)amino)methyl)phenyl)-N′-(2,6-diethylphenyl)urea]","Tumor growth control, high dose",[2],controls tumor growth by Day 28
same,Tumor after continued administration,"[2]; high dose, oral gavage, up to 42 d",significantly shrank
same,Toxicity observations,"[2]; oral gavage, gemcitabine 24 mg/kg, 8-2h 12, 24, 36 mg/kg",no toxicity
same,"Cell cycle arrest phase, high concentration",BxPC-3 cells; high concentration (>6 μM),G2/M arrest
same,"Cell cycle arrest phase, low concentration","BxPC-3 cells; low concentration (e.g., 3 μM)",G0/G1 arrest
same,Effect of co-administration with PTX on cell cycle,BxPC-3 cells; with PTX,Synergistic effects
